This note sets out measurements from patent US20130158127A1, “TEA TREE OIL DERIVATIVES” (priority 2011, published 2013).

The data set relates to Vero cells. The data set can be described thus: Vero cell cytotoxicy assays (light microscopy of monolayers).

On to polysorbate 60 [PS-60], for which the sub-toxic dose (a small proportion of cells appeared to remain healthy) is listed as 0.125%. Moreover, the non-toxic dose (no changes compared to the untreated control) is given as 0.06%.
